# What was measured:
# [1] = Chronic toxicity in female mice; type: in vivo
# From the text: Chronic toxicity has been studied in female mice.
# [2] = Subacute toxicity of G 8 in female rats; type: in vivo, rat; conditions: 2 g/kg/day, gastric gavage, 21 days
# Description: (§1) In view of the favorable acute toxicity data, compound G 8 was administered orally in sub-acute, but relatively large doses, to mice and rats for 15 days.
# Subacute toxicity of G 8 in female rats
# Daily dose: […] of G 8 in female rats by gastric
# Daily dose: 2 g/kg/day of G 8 by gastric gavage for 21 days
# [3] = growth promotion in baby-swines fed G 8 in rations; type: in vivo, swine
# Description: The effect of compound G 8 was tested in feed rations for baby-swines.
# Compound G 8 was added at a dosage level of 100 g/ton of feed. Five replicate groups of 10 animals (5 males and 5 females), age one day, were fed the ration containing G 8 and compared to 5 replicate groups of animals (5 males and 5 females) which received the same ration but without G 8.
# The test period was 28 days.
# [4] = Subacute toxicity of G 8 in the mouse; type: in vivo; conditions: for SGPT / SGOT: 1 g/kg/day, 24 hrs. after last dose
# Description: as §1
# Subacute toxicity of G 8 in the mouse
# Daily dose: 500 mg. G 8 by gastric gavage for 15 days
# Daily dose: 1 g/kg/day for 15 days
# b. SGOT and SGPT (24 hrs. after last dose)
# [5] = acute toxicity by several modes of administration in four species (overall); type: in vivo, guinea pig and rabbit; conditions: mouse, rat, guinea pig, rabbit
# Description: (§2) Furthermore, G8 compound was tested for acute toxicity by several modes of administration in four species, namely mouse, rat, guinea pig and rabbit. […] The test results are given below in tables 1, 2, 3 and 4.
# [6] = teratogenetic study with male and female mice and rats; type: in vivo
# Description: Furthermore, teratogenetic study was conducted with male and female mice and rats.
# [7] = Acute toxicity of G 8 in the guinea pig by oral administration; type: in vivo
# Description: as §2
# Acute toxicity of G 8 in the guinea pig by oral administration
# [8] = Acute toxicity of G 8 in the rabbit by esophageal administration; type: in vivo
# Description: as §2
# Acute toxicity of G 8 in the rabbit by esophageal administration
# [9] = test system: Treponema hyodysenteriae; test: in vitro minimum inhibitory concentration / activity against Treponema hyodysenteriae; type: cell-based
# Description: Compound G 8 has been tested "in vitro" against Treponema hyodysenteriae by a known technique. The minimum inhibitory concentration (the lowest concentration of compound in a dilution series where growth is inhibited) was 0.1 μg/ml.
# [10] = Acute toxicity of G 8 in female mice; type: in vivo, mouse
# Description: as §2
# Acute toxicity of G 8 in female mice
# [11] = Acute Toxicity of G 8 in the Rat; type: in vivo; conditions: for Dead/Treated within 21 days / Body Weight (m ± SEM), Termination: first experiment
# Description: as §2
# Acute Toxicity of G 8 in the Rat
# [12] = test system: swine dysentery; test: swine dysentery in swine herd fed G 8 in rations; type: in vivo; conditions: 400 g/ton in rations, herd with dysentery
# Description: Compound G 8 is mixed with swine feed rations at a level of 200 g/ton and was fed to swine housed in an area where there has been a previous outbreak of swine dysentery. Another herd was housed in a similar area, where there has been a previous outbreak of dysentery. They were fed the same rations as the first herd, but with no G 8 or other drug.
# Many members of the herd developed symptoms of dysentery. G 8 was then added with the rations at a level of 400 g/ton.
smiles,measurement,setting,value
"COc1ccc(O)c(C(O)c2c[n+]([O-])c3ccccc3[n+]2[O-])c1 (centres unmarked) [G 8, quinoxalyl-N^1,N^4-dioxide-2-hydroxy-5-methoxy-phenylcarbinol]",Chronic toxicity,[1],very satisfactory
same,"Average percent weight of fresh organs (m ± SE), Lung","[2]; 5 animals, NS, vehicle 0.85 ± 0.06",1.08 ± 0.09%
same,"Average percent weight of fresh organs (m ± SE), Kidneys","[2]; 5 animals, NS, vehicle 0.95 ± 0.04",1.04 ± 0.3%
same,"Average percent weight of fresh organs (m ± SE), Liver","[2]; 5 animals, vehicle 3.45 ± 0.07",4.54 ± 0.10%
same,Dead/Treated,[2]; death caused by a mistake in esophagus incannulation,1/6
same,"Body weight in g (m ± SE), Termination","[2]; start 204.1 ± 2.0, vehicle 200.0 ± 4.1 to 233.2 ± 5.1",210.6 ± 9.6 g
same,"Improvement, % (body weight gain)","[3]; 100 g/ton of feed, 28 days, combined average vs ration without G 8",3.1%
same,"Improvement, % (feed/gain ratio)","[3]; 100 g/ton of feed, 28 days, vs ration without G 8",2.8%
same,Feed/gain ratio,"[3]; 100 g/ton of feed, 28 days, without G 8: 1.82",1.77
same,"Body weight gain/swine, Females","[3]; 100 g/ton of feed, 28 days, without G 8: 5740 g",5880 g
same,"Body weight gain/swine, Combined average","[3]; 100 g/ton of feed, 28 days, without G 8: 6000",6190
same,"Body weight gain/swine, Males","[3]; 100 g/ton of feed, 28 days, without G 8: 6150 g",6480 g
same,growth promoting action,[3]; qualitative statement,effective growth promoting factor
same,Dead/Treated,"[4]; 500 mg/kg/day, gastric gavage, 15 days",0/10
same,"Fresh organ to body weight ratio, Kidneys","[4]; 500 mg/kg/day, gastric gavage, 15 days, vehicle 1.4 ± 0.1",1.5 ± 0.1
same,"Fresh organ to body weight ratio, Liver","[4]; 500 mg/kg/day, gastric gavage, 15 days, vehicle 5.2 ± 0.2",5.9 ± 0.3
same,% Body weight change (m ± SE),"[4]; 500 mg/kg/day, gastric gavage, 15 days, vehicle 20.4 ± 4.2",-8.1 ± 3.9%
same,Dead/Treated,"[4]; 1 g/kg/day for 15 days, oral, in adraganth gum",3/12
same,% Body weight change,"[4]; 1 g/kg/day for 15 days, oral, in adraganth gum, vehicle 25.04 ± 1.18",16.27 ± 1.31%
same,Dead/Treated,"[4]; 1 g/kg/day for 15 days, oral, in water",2/12
same,% Body weight change,"[4]; 1 g/kg/day for 15 days, oral, in water, vehicle 24.54 ± 0.64",18.5 ± 0.75%
same,SGPT,"[4]; oral, in adraganth gum, vehicle 6",10 Units/ml
same,SGOT,"[4]; oral, in adraganth gum, vehicle 119",132 Units/ml
same,SGPT,"[4]; oral, in water, vehicle 4",9 Units/ml
same,SGOT,"[4]; oral, in water, vehicle 116",124 Units/ml
same,order of acute toxicity,[5],low order toxicity
same,order of acute toxicity,[5]; listed as G8,low order of toxicity
same,malformations,[6],No malformations in either group were observed
same,number of young delivered live at birth,[6],comparable with controls
same,Dead/Treated within 21 days,[7]; 500 mg/kg,0/4
same,Dead/Treated within 21 days,[7]; 1000 mg/kg,1/4
same,Dead/Treated within 21 days,[7]; 2000 mg/kg,5/6
same,Dead/Treated within 21 days,[7]; 4000 mg/kg,6/6
same,Dead/Treated within 7 days,[8]; 500 mg/kg,0/2
same,Dead/Treated within 7 days,[8]; 1000 mg/kg,0/4
same,"Body weight (m ± SE), Termination","[8]; 1000 mg/kg, start 2037 ± 104.3, vehicle 2135 ± 75 to 2262 ± 215",1922.5 ± 71.5 g
same,Dead/Treated within 7 days,[8]; 2000 mg/kg,0/2
same,"Body weight, Termination","[8]; 2000 mg/kg, start 2250-2150",2180 + 2140 g
same,action against Treponema hyodysenteriae (specificity),[9],clearly specific action against Treponema hyodysenteriae
same,MIC,"[9]; Brachyspira hyodysenteriae, read-out: minimum inhibitory concentration",0.1 µg/mL
same,Dead/Treated animals,"[10]; endoperitoneal, 250 mg/kg, after 7 days",0/18
same,Dead/Treated animals,"[10]; endoperitoneal, 500 mg/kg, after 7 days",6/12
same,Dead/Treated animals,"[10]; endoperitoneal, 1000 mg/kg, after 2 days",6/6
same,Dead/Treated animals,"[10]; endoperitoneal, 1000 mg/kg, after 7 days",6/6
same,Dead/Treated animals,"[10]; endoperitoneal, 2000 mg/kg, after 1 day",6/6
same,Dead/Treated animals,"[10]; endoperitoneal, 2000 mg/kg, after 7 days",6/6
same,Dead/Treated animals,"[10]; oral, 1000 mg/kg, after 7 days",0/12
same,Dead/Treated animals,"[10]; oral, 2000 mg/kg, after 7 days",0/12
same,Dead/Treated animals,"[10]; oral, 4000 mg/kg, after 4 days",1/12
same,Dead/Treated animals,"[10]; oral, 4000 mg/kg, after 7 days",1/12
same,Dead/Treated within 7 days,"[11]; cumulative data regardless of animal sex, intraperitoneal, 500 mg/kg",4/16
same,Dead/Treated within 7 days,"[11]; cumulative data regardless of animal sex, oral, 4000 mg/kg",0/16
same,Dead/Treated within 21 days,"[11]; female, endoperitoneal, 500 mg/kg",2/4
same,Dead/Treated within 21 days,"[11]; female, oral, 4000 mg/kg",0/4
same,"Body Weight (m ± SEM), Termination","[11]; female, oral, 4000 mg/kg, start 201.2 ± 4.2, vehicle 189.2 ± 3.9 to 230.0 ± 10.5",238.2 ± 12.1 g
same,Dead/Treated within 21 days,"[11]; male, endoperitoneal, 500 mg/kg",1/4
same,"Body Weight (m ± SEM), Termination","[11]; male, endoperitoneal, 500 mg/kg, start 234.0 ± 6.2, vehicle 230.0 ± 5.7 to 324.0 ± 8.7",314.3 ± 10.3 g
same,Dead/Treated within 21 days,"[11]; male, oral, 4000 mg/kg",0/4
same,"Body Weight (m ± SEM), Termination","[11]; male, oral, 4000 mg/kg, start 234.5 ± 13.8, vehicle 233.7 ± 3.7 to 331.0 ± 0.5",288.7 ± 13.8 g
same,Dead/Treated within 7 days,"[11]; second experiment, female, intraperitoneal, 500 mg/kg",0/4
same,"Body weight (±SE), Termination","[11]; second experiment, female, intraperitoneal, 500 mg/kg, start 232.5 ± 5.9",218.2 ± 7.0 g
same,Dead/Treated within 7 days,"[11]; second experiment, female, oral, 4000 mg/kg",0/4
same,"Body weight (±SE), Termination","[11]; second experiment, female, oral, 4000 mg/kg, start 252.0 ± 16.6",253.5 ± 12.1 g
same,Dead/Treated within 7 days,"[11]; second experiment, male, intraperitoneal, 500 mg/kg",2/4
same,Dead/Treated within 7 days,"[11]; second experiment, male, oral, 4000 mg/kg",0/4
same,"Body weight (±SE), Termination","[11]; second experiment, male, oral, 4000 mg/kg, start 222.5 ± 6.2",231.7 ± 15.7 g
same,dysentery symptoms of diseased members,[12],the diseased members became free from dysentery symptoms
same,spread of the disease,[12],The spread of the disease was halted

# From patent US4634702A, “Quinoxalinemethanol compounds for combatting swine dysentery and as growth promoting factors, method of preparation, and compositions containing them” (priority 1983, dated 1987)
